Measured values reported in patent US20110172200A1, “USE OF INHIBITOR OF BETA-LACTAMASES AND ITS COMBINATION WITH BETA-LACTAM ANTIBIOTICS” (priority 2008, published 2011).
“And” between values parts separate entries of the source, which are not always exact repeats. Equal entries are not always repeated. Where two headings read alike, the source gives them in different places.

Columns and labels:
strains S1-S9 = assay: Broth microdilution susceptibility assay (MIC), all strains; assay type: cell-based; conditions: strains deemed as resistant to LK-176 alone
Method: (§1) Representative inhibitor of beta-lactamases of formula (I) was evaluated against the bacterial strains producing serine-based class A beta-lactamases including CTX-M, TEM-type, SHV-type extended spectrum beta-lactamases (ESBL) and class C betalactamases (AmpC) as noted in Table 2.
(§2) Bacterial suspensions with a turbidity equivalent to that of a 0.5 McFarland standard were prepared by suspending a tiny portion of one colony from blood agar plates in 2 mL of sterile saline. Suspensions were further diluted with cation adjusted Mueller Hinton Broth (CAMHB) to obtain a final inoculum of 5×10^5 CFU/mL.
(§3) The in vitro activities of the antibiotics were determined by the broth microdilution method as recommended by CLSI guidelines.
MIC experiments were performed in duplicate in 96-well microtiter plates using CAMHB. Serial twofold dilutions of each antibiotic either alone or in combination with constant concentration ratio of LK-176 (2:1) and (10:1) were prepared in CAMHB. The bacterial suspension with final inoculum 10^5 CFU/mL was transferred to the test medium containing the antibacterial substances. In each well of microtiter plate 50 μL of bacterial inoculum and 50 μL of antibiotic dilutions were combined. Each plate included 4 wells with no bacterial inoculum (negative control) and 4 wells with no test compound and no antibiotic (positive control). […]

C. freundii B271 (SHV-5) = assay: Broth microdilution susceptibility assay (MIC), strain S8; assay type: cell-based; conditions: 24 h, CAMHB, 35° C.; for MIC: Citrobacter freundii
Method: as §1, §2, §3
(§4) MIC experiments were performed in duplicate in 96-well microtiter plates using CAMHB. Serial twofold dilutions of each antibiotic either alone or in combination with constant concentration ratio of LK-176 (2:1) and (10:1) were prepared in CAMHB. The bacterial suspension with final inoculum […] was transferred to the test medium containing the antibacterial substances. In each well of microtiter plate 50 μL of bacterial inoculum and 50 μL of antibiotic dilutions were combined. Each plate included 4 wells with no bacterial inoculum (negative control) and 4 wells with no test compound and no antibiotic (positive control). The plates were incubated at 35° C. for 24 h. Purity check and colony counts on each inoculum suspension was performed to ensure that the final inoculum concentration routinely obtained closely approximates 5×10^5 CFU/mL.

[1] = test system: E. caerogenes ATCC 29751 (class II); assay: Broth microdilution susceptibility assay (MIC), strain S4; assay type: cell-based; conditions: 24 h, duplicate, CAMHB, 35° C.
Method: as §1, §2, §3, §4

[2] = target: class A beta-lactamase TEM-1 (Escherichia coli, UniProt P62593); assay: IC50 determination with nitrocefin as reporter substrate, TEM-1; assay type: biochemical, E. coli; conditions: 30 min pre-incubation at 37° C., phosphate buffer pH 7.0, nitrocefin
Method: (§5) The IC50 value represents the concentration of inhibitor required to effect a 50% loss of activity of free enzyme. A standard test for the production of beta-lactamase involves use of the chromogenic cephalosporin, nitrocefin.
(§6) Homogeneously purified class A beta-lactamases TEM-1 and SHV-1 from E. coli and class C enzyme P99 from Enterobacter cloaca were employed in the assay.
(§7) All the enzymes and compounds were dissolved in 50 mM phosphate buffer pH 7.0 and all further dilutions were done with the same buffer solution. Enzyme and compound dilutions were pre-incubated for 30 min at 37° C. and in a final volume of 500 μl. Than 10 μl of 5 mM nitrocefin (reporter substrate) was added to the solution and the absorbance at 482 nm was measured during 2 to 5 minutes. The initial rate was calculated for all the different solutions. The […] values were determined as the inhibitor concentration that gave an initial hydrolysis rate of nitrocefin equal to 50% of the hydrolysis rate of nitrocefin in absence of inhibitor.
(§8) Representative compounds of formula (I) were evaluated as inhibitors of beta-lactamases of TEM-1 and SHV-1 (class A, penicillinase) from E. coli and P-99 (class C, cephalosporinase) from Enterobacter cloacae, by relative IC50 analysis using a procedure similar to that described above.

[3] = target: class C beta-lactamase P99 (AmpC) (Enterobacter cloacae, UniProt P05364); assay: IC50 determination with nitrocefin as reporter substrate, P99; assay type: biochemical
Method: as §5, §6, §7, §8

E. cloacae B274 (AmpC) = assay: Broth microdilution susceptibility assay (MIC), strain S1; assay type: cell-based; conditions: 24 h, CAMHB, 35° C.; for MIC: Enterobacter cloacae
Method: as §1, §2, §3, §4

E. cloacae 4013 = assay: Broth microdilution susceptibility assay (MIC), strain S3; assay type: cell-based; conditions: duplicate, CAMHB, 35° C.; for MIC: Enterobacter cloacae, 4013, 24 h; for MIC S3: 24 h
Method: as §1, §2, §3, §4

[4] = test system: K. pneumoniae ATCC 700603 (SHV-18); assay: Broth microdilution susceptibility assay (MIC), strain S7; assay type: cell-based; conditions: CAMHB, 35° C.; for MIC: Klebsiella pneumoniae, ATCC700603, 24 h; for MIC S7: 24 h
Method: as §1, §2, §3, §4

C. freundii B318 (CTX-M) = assay: Broth microdilution susceptibility assay (MIC), strain S9; assay type: cell-based
Method: as §1, §2, §3, §4

E. cloacae B275 (AmpC) = assay: Broth microdilution susceptibility assay (MIC), strain S2; assay type: cell-based; conditions: 24 h, duplicate, CAMHB, 35° C.
Method: as §1, §2, §3, §4

[5] = target: class A beta-lactamase SHV-1 (Escherichia coli, UniProt P0AD63); assay: IC50 determination with nitrocefin as reporter substrate, SHV-1; assay type: biochemical, E. coli
Method: as §5, §6, §7, §8

K. pneumoniae DSA 1461 = assay: Broth microdilution susceptibility assay (MIC), strain S6; assay type: cell-based; conditions: Table 2 lower part, duplicate, CAMHB, 35° C., 24 h
Method: as §1, §2, §3, §4

E. faecalis ATCC 29212 = assay: Broth microdilution susceptibility assay (MIC), strain S5; assay type: cell-based; conditions: duplicate, CAMHB, 35° C.; for MIC: Enterococcus faecalis, ATCC29212, 24 h; for MIC S5: 24 h
Method: as §1, §2, §3, §4

AmpC = conditions: cited from earlier work
[6] = single and repeated doses, i.v. and oral, healthy subjects; cited from earlier work
[7] = Table 2 upper part, duplicate (two lines per substance)
[8] = Table 2 lower part, duplicate, CAMHB, 35° C., 24 h

Sequence of class C beta-lactamase P99 (AmpC) (P05364 21-381): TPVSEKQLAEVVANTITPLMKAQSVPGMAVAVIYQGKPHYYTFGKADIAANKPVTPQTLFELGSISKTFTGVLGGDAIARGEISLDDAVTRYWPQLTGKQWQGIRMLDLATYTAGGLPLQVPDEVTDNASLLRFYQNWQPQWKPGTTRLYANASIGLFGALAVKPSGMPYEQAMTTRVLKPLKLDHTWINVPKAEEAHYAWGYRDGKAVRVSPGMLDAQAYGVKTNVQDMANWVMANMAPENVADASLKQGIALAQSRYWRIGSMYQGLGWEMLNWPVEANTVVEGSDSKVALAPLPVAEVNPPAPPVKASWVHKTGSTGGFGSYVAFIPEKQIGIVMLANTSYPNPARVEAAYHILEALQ
Sequence of class A beta-lactamase TEM-1 (P62593 24-286 limits assumed): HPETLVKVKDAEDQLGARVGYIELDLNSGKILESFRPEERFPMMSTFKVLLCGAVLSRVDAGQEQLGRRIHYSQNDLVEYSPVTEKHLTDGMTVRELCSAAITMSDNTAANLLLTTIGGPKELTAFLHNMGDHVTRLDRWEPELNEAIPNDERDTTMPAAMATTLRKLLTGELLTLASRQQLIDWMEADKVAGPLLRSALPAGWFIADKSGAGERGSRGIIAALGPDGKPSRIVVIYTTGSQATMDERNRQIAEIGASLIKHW
Sequence of class A beta-lactamase SHV-1 (P0AD63 22-286): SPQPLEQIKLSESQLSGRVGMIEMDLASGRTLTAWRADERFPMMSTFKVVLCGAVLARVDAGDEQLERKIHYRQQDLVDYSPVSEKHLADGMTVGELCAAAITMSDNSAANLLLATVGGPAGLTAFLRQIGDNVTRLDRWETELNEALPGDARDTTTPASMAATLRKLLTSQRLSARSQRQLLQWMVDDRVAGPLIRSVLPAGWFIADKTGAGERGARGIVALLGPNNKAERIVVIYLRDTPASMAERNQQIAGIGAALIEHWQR

CO[C@H]1CCC[C@H]2C1=C(C(=O)O)N1C(=O)C(C(C)O)[C@@H]21 (stereo partly drawn) [LK-176, (4S,8S,9R)-4-methoxy-10-(1-Hydroxyethyl)-11-oxo-1-azatricyclo-[7.2.0.0 (3,8)]undec-2-ene-2-carboxylic acid]
MIC values of LK-176 alone, all strains S1-S9 (strains S1-S9): above 16 mg/L
MIC (C. freundii B271 (SHV-5); Table 2 lower part, duplicate): 64 µg/mL
MIC (C. freundii B271 (SHV-5); Table 2 upper part, column 7, duplicate): 128 µg/mL
MIC ([1]; Table 2 lower part): 16 µg/mL
MIC ([1]; Table 2 upper part): 32 µg/mL
IC50 [2]: 15 nM
IC50 [3]: 0.15 nM
MIC (E. cloacae B274 (AmpC); Table 2 lower part, duplicate): 32 µg/mL
MIC (E. cloacae B274 (AmpC); [7]): 32 µg/mL
MIC S1 (E. cloacae B274 (AmpC); Table 2 lower part, duplicate): 16 mg/L
MIC (E. cloacae 4013; Table 2 lower part): 64 µg/mL
MIC (E. cloacae 4013; Table 2 upper part): 64 µg/mL
MIC S3 (E. cloacae 4013; Table 2 lower part): 32 mg/L
MIC ([4]; Table 2 lower part, duplicate): > 128 µg/mL
MIC ([4]; Table 2 upper part, column 6, duplicate): 16 µg/mL
MIC S7 ([4]; Table 2 lower part, duplicate): 128 mg/L
MIC S9 (C. freundii B318 (CTX-M); [8]): 32 mg/L
MIC (E. cloacae B275 (AmpC); Enterobacter cloacae, Table 2 lower part): 64 µg/mL
IC50 [5]: 200 nM
MIC (K. pneumoniae DSA 1461; Klebsiella pneumoniae, DSA1461): 16 µg/mL
MIC (E. faecalis ATCC 29212; Table 2 lower part): 64 µg/mL
MIC (E. faecalis ATCC 29212; Table 2 upper part): 32 µg/mL

CO/N=C(\C(=O)N[C@@H]1C(=O)N2C(C(=O)O)=C(CSc3nc(=O)c(O)nn3C)CS[C@H]12)c1csc(N)n1 [Ceftriaxone (TRI), ceftriaxone]
MIC S8 (C. freundii B271 (SHV-5); Table 2 lower part, duplicate): 32 mg/L
MIC S4 ([1]; Table 2 lower part): 8 mg/L
MIC S1 (E. cloacae B274 (AmpC); Table 2 lower part, duplicate): 128 mg/L
MIC S3 (E. cloacae 4013; Table 2 lower part): 32 mg/L
MIC S7 ([4]; Table 2 lower part, duplicate): 8 mg/L
MIC S2 (E. cloacae B275 (AmpC); Table 2 lower part): 64 mg/L
MIC S6 (K. pneumoniae DSA 1461): >128 mg/L and 128 mg/L
MIC S5 (E. faecalis ATCC 29212; Table 2 lower part): >128 mg/L

CO/N=C(\C(=O)N[C@@H]1C(=O)N2C(C(=O)O)=C(COC(N)=O)CS[C@H]12)c1ccco1 [Cefuroxime (URO), cefuroxime]
MIC S8 (C. freundii B271 (SHV-5); Table 2 lower part, duplicate): 128 mg/L
MIC S4 ([1]; Table 2 lower part): 128 mg/L
MIC S1 (E. cloacae B274 (AmpC); Table 2 lower part, duplicate): >128 mg/L
MIC S3 (E. cloacae 4013; Table 2 lower part): >128 mg/L
MIC S7 ([4]; Table 2 lower part, duplicate): 64 mg/L and 32 mg/L
MIC S9 (C. freundii B318 (CTX-M)): 128 mg/L
MIC S2 (E. cloacae B275 (AmpC); Table 2 lower part): >128 mg/L
MIC S6 (K. pneumoniae DSA 1461): >128 mg/L
MIC S5 (E. faecalis ATCC 29212; Table 2 lower part): 64 mg/L and 32 mg/L

CCN1CCN(C(=O)N[C@@H](C(=O)N[C@@H]2C(=O)N3[C@@H]2SC(C)(C)[C@@H]3C(=O)O)c2ccccc2)C(=O)C1=O [Piperacillin (PIP), piperacillin]
MIC S8 (C. freundii B271 (SHV-5); Table 2 lower part, duplicate): >128 mg/L
MIC S4 ([1]; Table 2 lower part): 32 mg/L
MIC S1 (E. cloacae B274 (AmpC); Table 2 lower part, duplicate): >128 mg/L
MIC S3 (E. cloacae 4013; Table 2 lower part): >128 mg/L
MIC S7 ([4]; Table 2 lower part, duplicate): >128 mg/L
MIC S9 (C. freundii B318 (CTX-M); [8]): 128 mg/L
MIC S2 (E. cloacae B275 (AmpC); Table 2 lower part): >128 mg/L
MIC S6 (K. pneumoniae DSA 1461): >128 mg/L
MIC S5 (E. faecalis ATCC 29212; Table 2 lower part): 16 mg/L

CO[C@H]1CCC[C@H]2C1=C(C(=O)O)N1C(=O)[C@H]([C@@H](C)O)[C@@H]21 [sanfetrinem]
kcat values of AmpC (AmpC): 0.00033 s⁻¹
Safety and tolerability [6]: good tolerability

CO/N=C(\C(=O)N[C@@H]1C(=O)N2C(C(=O)[O-])=C(C[N+]3(C)CCCC3)CS[C@H]12)c1csc(N)n1 [Cefepime (EPI), cefepime]
MIC S5 (E. faecalis ATCC 29212; Table 2 upper part): 32 mg/L and 16 mg/L

CC(C)(O/N=C(\C(=O)N[C@@H]1C(=O)N2C(C(=O)[O-])=C(C[n+]3ccccc3)CS[C@H]12)c1csc(N)n1)C(=O)O [Ceftazidime (TAZ), ceftazidime]
MIC S4 ([1]; Table 2 upper part): 16 mg/L
MIC S1 (E. cloacae B274 (AmpC); [7]): >128 mg/L
MIC S3 (E. cloacae 4013; Table 2 upper part): 128 mg/L
MIC S2 (E. cloacae B275 (AmpC); Table 2 upper part): >128 mg/L
MIC S5 (E. faecalis ATCC 29212; Table 2 upper part): 16 mg/L

CO/N=C(\C(=O)N[C@@H]1C(=O)N2C(C(=O)O)=C(COC(C)=O)CS[C@H]12)c1csc(N)n1 [Cefotaxime (OTA), cefotaxime]
MIC S4 ([1]; Table 2 upper part): 8 mg/L
MIC S1 (E. cloacae B274 (AmpC); [7]): 128 mg/L
MIC S3 (E. cloacae 4013; Table 2 upper part): 64 mg/L
MIC S2 (E. cloacae B275 (AmpC); Table 2 upper part): 128 mg/L
MIC S5 (E. faecalis ATCC 29212; Table 2 upper part): 16 mg/L

C=CC1=C(C(=O)O)N2C(=O)[C@@H](NC(=O)/C(=N\OCC(=O)O)c3csc(N)n3)[C@H]2SC1 [cefixime]
kcat values of AmpC (AmpC): 10 s⁻¹
